Data published in PubChem BioAssay (NCI).
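Exposure lasted 48 hours, with cells grown in 96-well plates and compounds tested at five concentrations. Here, GI50 denotes the concentration required for 50% inhibition of growth. TGI denotes the concentration required for complete inhibition of growth.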

Assays:
Test in all cases: inhibition of tumour cell growth, NCI panel, 48 h
NCI-H23 lung = test system: NCI-H23 lung
HOP-62 NSCLC = test system: HOP-62 NSCLC
M14 melanoma = test system: M14 melanoma
KM12 colon = test system: KM12 colon
NCI-H460 lung = test system: NCI-H460 lung
OVCAR-8 ovarian = test system: OVCAR-8 ovarian
T-47D breast = test system: T-47D breast
OVCAR-4 ovarian = test system: OVCAR-4 ovarian
EKVX NSCLC = test system: EKVX NSCLC
SK-MEL-28 melanoma = test system: SK-MEL-28 melanoma
A549 NSCLC = test system: A549 NSCLC
SK-MEL-5 melanoma = test system: SK-MEL-5 melanoma
RXF 393 renal = test system: RXF 393 renal
HL-60(TB) leukemia = test system: HL-60(TB) leukemia
OVCAR-5 ovarian = test system: OVCAR-5 ovarian
786-0 renal = test system: 786-0 renal
SK-MEL-2 melanoma = test system: SK-MEL-2 melanoma
MCF7 breast = test system: MCF7 breast
UO-31 renal = test system: UO-31 renal
CCRF-CEM leukemia = test system: CCRF-CEM leukemia
ACHN renal = test system: ACHN renal
SF-268 CNS = test system: SF-268 CNS
NCI-H522 lung = test system: NCI-H522 lung
UACC-257 melanoma = test system: UACC-257 melanoma
MOLT-4 leukemia = test system: MOLT-4 leukemia
COLO 205 colon = test system: COLO 205 colon
TK-10 renal = test system: TK-10 renal
SF-295 CNS = test system: SF-295 CNS
MDA-MB-231 breast = test system: MDA-MB-231 breast
K-562 leukemia = test system: K-562 leukemia
SN12C renal = test system: SN12C renal
BT-549 breast = test system: BT-549 breast
MDA-MB-435 = test system: MDA-MB-435
SR leukemia = test system: SR leukemia
NCI-H226 lung = test system: NCI-H226 lung
DU-145 prostate = test system: DU-145 prostate
OVCAR-3 ovarian = test system: OVCAR-3 ovarian
NCI/ADR-RES ovarian = test system: NCI/ADR-RES ovarian
MALME-3M melanoma = test system: MALME-3M melanoma
RPMI-8226 leukemia = test system: RPMI-8226 leukemia
HCC-2998 colon = test system: HCC-2998 colon
PC-3 prostate = test system: PC-3 prostate
SNB-19 CNS = test system: SNB-19 CNS
HT29 colon = test system: HT29 colon
A498 renal = test system: A498 renal
SK-OV-3 ovarian = test system: SK-OV-3 ovarian
HCT-15 colon = test system: HCT-15 colon
SNB-75 CNS = test system: SNB-75 CNS
U251 CNS = test system: U251 CNS
SF-539 CNS = test system: SF-539 CNS
SW-620 colon = test system: SW-620 colon
LOX IMVI melanoma = test system: LOX IMVI melanoma
HS 578T breast = test system: HS 578T breast
CAKI-1 renal = test system: CAKI-1 renal
IGROV1 ovarian = test system: IGROV1 ovarian
HCT-116 colon = test system: HCT-116 colon
UACC-62 melanoma = test system: UACC-62 melanoma
HOP-92 NSCLC = test system: HOP-92 NSCLC

`C=C1C(=O)O[C@H]2[C@H]1CC/C(COC(=O)/C=C\C(=O)NCc1ccc(Cn3c(=O)sn(CCCI)c3=O)cc1)=C\CC[C@@]1(C)O[C@@H]21` was tested, and the GI50 (NCI-H23 lung) was 788 nM, the TGI (NCI-H23 lung) was 1530 nM and the GI50 (HOP-62 NSCLC) was 1510 nM. For the same molecule, the TGI (HOP-62 NSCLC) was 7680 nM, the GI50 (M14 melanoma) was 637 nM and the TGI (M14 melanoma) was 1440 nM. For the same molecule, the GI50 (KM12 colon) was 866 nM, the TGI (KM12 colon) was 1730 nM and the GI50 (NCI-H460 lung) was 738 nM. It also gave a TGI (NCI-H460 lung) of 1580 nM, a GI50 (OVCAR-8 ovarian) of 771 nM and a TGI (OVCAR-8 ovarian) of 3410 nM. For the same molecule, the GI50 (T-47D breast) was 801 nM, the TGI (T-47D breast) was 2170 nM and the GI50 (OVCAR-4 ovarian) was 603 nM. It also gave a TGI (OVCAR-4 ovarian) of 1290 nM, a GI50 (EKVX NSCLC) of 729 nM and a TGI (EKVX NSCLC) of 1440 nM. It also gave a GI50 (SK-MEL-28 melanoma) of 800 nM, a TGI (SK-MEL-28 melanoma) of 1500 nM and a GI50 (A549 NSCLC) of 1050 nM. For the same molecule, the TGI (A549 NSCLC) was 2960 nM, the GI50 (SK-MEL-5 melanoma) was 813 nM and the TGI (SK-MEL-5 melanoma) was 1490 nM. The GI50 (RXF 393 renal) was 423 nM, the TGI (RXF 393 renal) was 1110 nM and the GI50 (HL-60(TB) leukemia) was 575 nM. The TGI (HL-60(TB) leukemia) was 2260 nM, the GI50 (OVCAR-5 ovarian) was 752 nM and the TGI (OVCAR-5 ovarian) was 1590 nM. For the same molecule, the GI50 (786-0 renal) was 770 nM, the TGI (786-0 renal) was 1510 nM and the GI50 (SK-MEL-2 melanoma) was 919 nM. For the same molecule, the TGI (SK-MEL-2 melanoma) was 1960 nM, the GI50 (MCF7 breast) was 282 nM and the TGI (MCF7 breast) was 1090 nM. It also gave a GI50 (UO-31 renal) of 316 nM, a TGI (UO-31 renal) of 1020 nM and a GI50 (CCRF-CEM leukemia) of 155 nM. The TGI (CCRF-CEM leukemia) was 1680 nM, the GI50 (ACHN renal) was 413 nM and the TGI (ACHN renal) was 1040 nM. The GI50 (SF-268 CNS) was 740 nM, the TGI (SF-268 CNS) was 1440 nM and the GI50 (NCI-H522 lung) was 643 nM. The TGI (NCI-H522 lung) was 1730 nM, the GI50 (UACC-257 melanoma) was 872 nM and the TGI (UACC-257 melanoma) was 1810 nM. It also gave a GI50 (MOLT-4 leukemia) of 557 nM, a TGI (MOLT-4 leukemia) of 2990 nM and a GI50 (COLO 205 colon) of 568 nM. It also gave a TGI (COLO 205 colon) of 1510 nM, a GI50 (TK-10 renal) of 758 nM and a TGI (TK-10 renal) of 1520 nM. For the same molecule, the GI50 (SF-295 CNS) was 2190 nM, the TGI (SF-295 CNS) was 8060 nM and the GI50 (MDA-MB-231 breast) was 593 nM. For the same molecule, the TGI (MDA-MB-231 breast) was 1340 nM, the GI50 (K-562 leukemia) was 312 nM and the TGI (K-562 leukemia) was 13100 nM. The GI50 (SN12C renal) was 643 nM, the TGI (SN12C renal) was 1500 nM and the GI50 (BT-549 breast) was 622 nM. The TGI (BT-549 breast) was 1450 nM, the GI50 (MDA-MB-435) was 605 nM and the TGI (MDA-MB-435) was 1250 nM. It also gave a GI50 (SR leukemia) of 170 nM, a TGI (SR leukemia) of 7800 nM and a GI50 (NCI-H226 lung) of 883 nM. It also gave a TGI (NCI-H226 lung) of 2620 nM, a GI50 (DU-145 prostate) of 654 nM and a TGI (DU-145 prostate) of 1310 nM. It also gave a GI50 (OVCAR-3 ovarian) of 281 nM, a TGI (OVCAR-3 ovarian) of 927 nM and a GI50 (NCI/ADR-RES ovarian) of 988 nM. It also gave a TGI (NCI/ADR-RES ovarian) of 3610 nM, a GI50 (MALME-3M melanoma) of 707 nM and a TGI (MALME-3M melanoma) of 1420 nM. For the same molecule, the GI50 (RPMI-8226 leukemia) was 196 nM, the TGI (RPMI-8226 leukemia) was 1210 nM and the GI50 (HCC-2998 colon) was 909 nM. For the same molecule, the TGI (HCC-2998 colon) was 1660 nM, the GI50 (PC-3 prostate) was 610 nM and the TGI (PC-3 prostate) was 1440 nM. For the same molecule, the GI50 (SNB-19 CNS) was 850 nM, the TGI (SNB-19 CNS) was 1690 nM and the GI50 (HT29 colon) was 547 nM. The TGI (HT29 colon) was 2460 nM, the GI50 (A498 renal) was 831 nM and the TGI (A498 renal) was 1550 nM. The GI50 (SK-OV-3 ovarian) was 5080 nM, the TGI (SK-OV-3 ovarian) was 11400 nM and the GI50 (HCT-15 colon) was 355 nM. For the same molecule, the TGI (HCT-15 colon) was 1120 nM, the GI50 (SNB-75 CNS) was 442 nM and the TGI (SNB-75 CNS) was 1160 nM. It also gave a GI50 (U251 CNS) of 871 nM, a TGI (U251 CNS) of 1950 nM and a GI50 (SF-539 CNS) of 689 nM. For the same molecule, the TGI (SF-539 CNS) was 1340 nM, the GI50 (SW-620 colon) was 250 nM and the TGI (SW-620 colon) was 891 nM. It also gave a GI50 (LOX IMVI melanoma) of 291 nM, a TGI (LOX IMVI melanoma) of 983 nM and a GI50 (HS 578T breast) of 851 nM. The TGI (HS 578T breast) was 2390 nM, the GI50 (CAKI-1 renal) was 298 nM and the TGI (CAKI-1 renal) was 999 nM. The GI50 (IGROV1 ovarian) was 368 nM, the TGI (IGROV1 ovarian) was 1110 nM and the GI50 (HCT-116 colon) was 193 nM. The TGI (HCT-116 colon) was 770 nM, the GI50 (UACC-62 melanoma) was 732 nM and the TGI (UACC-62 melanoma) was 1450 nM. The GI50 (HOP-92 NSCLC) was 580 nM and the TGI (HOP-92 NSCLC) was 1310 nM.
